Reference: the supplement of paper PMC11208160

Assay: recombinant barcode read abundance after kanamycin selection (control-corrected) (log10(CPM+1)); higher = more efficient recombination; sequences stand for … in AGTGCAGAGAAAATCGGCCAGTTTTCTCTGCCTGCAGTCCGCATGCCGT…AGATTTATGCAGCGGACTGCCTTTCTCCCAAAGTGATAAACCGGACAGTATCATGGACCGGTTTTCCCGGTAATCCGTATTTGCAAGGTTGGTTTCACT; site = the 11-nt target
Outline: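 Reported as log10(CPM+1), each value stands for recombination efficiency. That efficiency is the averaged, control-corrected counts per million of barcodes found at recombinant junctions. Cells from a pooled E. coli library pairing targets with IS621 bridge RNA target-binding loops were plated twice on chloramphenicol/ampicillin LB agar (control) and twice on chloramphenicol/ampicillin/kanamycin with 0.1 mM IPTG.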
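Note: IS621 recombinase and bridge RNA in Escherichia coli cells.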

| Sequence | recombinant barcode read abundance (log10) |
| --- | --- |
| GTCGGCGCTTGGGTTCTAACCTGTTGCCT (site GTGGGCGCTAG) | 0.531 |
| GTCGGCGCTTGGGTTCTAACCTGTTGCCT (site GTTGGCGCTAG) | 0.256 |
| GTCGGGACTTGGGTTCTAACCTGTTGCCT (site GTCGGAACTAG) | 0.863 |
| GTCGGGACTTGGGTTCTAACCTGTTGCCT (site GTCGGCACTAG) | 0.113 |
| GTCGGGACTTGGGTTCTAACCTGTTGCCT (site GTCGGGACTAG) | 1.51 |
| GTCGGGACTTGGGTTCTAACCTGTTGCCT (site GTCGGTACTAG) | 0.0446 |
| GTCGTAGCTTGGGTTCTAACCTGTTGCCT (site GACGTAGCTAG) | 0.464 |
| GTCGTAGCTTGGGTTCTAACCTGTTGCCT (site GCCGTAGCTAG) | 0.0842 |
| GTCGTAGCTTGGGTTCTAACCTGTTGCCT (site GGCGTAGCTAG) | 0.116 |
| GTCGTAGCTTGGGTTCTAACCTGTTGCCT (site GTCGTAGCTAG) | 0.256 |
| GTCTAAGCTTGGGTTCTAACCTGTTGCCT (site GTCTAAGCTAG) | 0.171 |
| GTCTAAGCTTGGGTTCTAACCTGTTGCCT (site GTCTGAGCTAG) | 0.0375 |
| GTCTACTCTTGGGTTCTAACCTGTTGCTG (site GTCTACTCTCA) | 1.65 |
| GTCTACTCTTGGGTTCTAACCTGTTGCTG (site GTCTTCTCTAA) | 0.0134 |
| GTCTCATCTTGGGTTCTAACCTGTTGCCT (site GTCTAATCTAG) | 0.0787 |
| GTCTCATCTTGGGTTCTAACCTGTTGCCT (site GTCTCATCTAG) | 0.154 |
| GTCTCATCTTGGGTTCTAACCTGTTGCCT (site GTCTGATCTAG) | 0.0892 |
| GTCTCATCTTGGGTTCTAACCTGTTGCCT (site GTCTTATCTAG) | 0.0289 |
| GTCTCGGCTTGGGTTCTAACCTGTTGCTG (site GGGTCGGCTCA) | 0.0356 |
| GTCTCGGCTTGGGTTCTAACCTGTTGCTG (site GTCTCGGCTCA) | 0.0917 |
| GTCTCTACTTGGGTTCTAACCTGTTGCCG (site GTCACTACTCG) | 0.234 |
| GTCTCTACTTGGGTTCTAACCTGTTGCCG (site GTCCCTACTCG) | 0.593 |

| Sequence | recombinant barcode read abundance (log10) |
| --- | --- |
| GTCTCTACTTGGGTTCTAACCTGTTGCCG (site GTCGCTACTCG) | 0.117 |
| GTCTCTACTTGGGTTCTAACCTGTTGCCG (site GTCTCTACTCG) | 0.0442 |
| GTCTCTTCTTGGGTTCTAACCTGTTGCTA (site GTCTCGTCTAA) | 0.0282 |
| GTCTCTTCTTGGGTTCTAACCTGTTGCTA (site GTCTCTTCTTA) | 0.306 |
| GTCTTACCTTGGGTTCTAACCTGTTGCCT (site GTCATACCTAG) | 0.0521 |
| GTCTTACCTTGGGTTCTAACCTGTTGCCT (site GTCCTACCTAG) | 1.21 |
| GTCTTACCTTGGGTTCTAACCTGTTGCCT (site GTCGTACCTAG) | 0.098 |
| GTCTTACCTTGGGTTCTAACCTGTTGCCT (site GTCTTACCTAG) | 1.34 |
| GTCTTACCTTGGGTTCTAACCTGTTGCTT (site GTCTTACCTAA) | 0.74 |
| GTCTTACCTTGGGTTCTAACCTGTTGCTT (site TTCATACCTAA) | 0.128 |
| GTCTTCCCTTGGGTTCTAACCTGTTGCCG (site ATCTTACCTCG) | 0.0566 |
| GTCTTCCCTTGGGTTCTAACCTGTTGCCG (site GTCTTCCCTCG) | 1.5 |
| GTCTTCCCTTGGGTTCTAACCTGTTGCGT (site GTCATGCCTAC) | 0.0371 |
| GTCTTCCCTTGGGTTCTAACCTGTTGCGT (site GTCTTCCCTAC) | 1.74 |
| GTGAAGCCTTGGGTTCTAACCTGTTGCCT (site ATGAAGCCTAG) | 0.826 |
| GTGAAGCCTTGGGTTCTAACCTGTTGCCT (site CTGAAGCCTAG) | 0.464 |
| GTGAAGCCTTGGGTTCTAACCTGTTGCCT (site GTGAAGCCTAG) | 1.48 |
| GTGAAGCCTTGGGTTCTAACCTGTTGCCT (site TTGAAGCCTAG) | 0.421 |
| GTGACCGCTTGGGTTCTAACCTGTTGCCT (site GTAACCGCTAG) | 2 |
| GTGACCGCTTGGGTTCTAACCTGTTGCCT (site GTCACCGCTAG) | 0.235 |
| GTGACCGCTTGGGTTCTAACCTGTTGCCT (site GTGACCGCTAG) | 1.89 |
